Measured values: ChEMBL document CHEMBL5724696, “Autophagy assay results for EUbOPEN Chemogenomics Library” (2024)

Experiments:
Assay type in all cases: functional, Homo sapiens
TERT-RPE1 = experiment: (§1) Here: values are normalized to the negative (DMSO; defined as 0% autophagy induction) and positive (250nM Torin1; mTOR inhibitor; defined as maximal inducer of autophagy = 100%) control compounds and represented as % of autophagy induction. […] The impact of autophagy induction on cells is complex and depends on the affected target. As such, the magnitude of a phenotype may not be equally mirrored in the %-value of autophagy induction and vice versa. The dynamics of the induction may indicate the mode of activation: e.g. activation via phosphorylation or a signaling cascade may occur fast, while activation via transcription factors may take considerably longer. […] Of note, treatment concentrations may be sub-optimal for specific compounds, leading to false negative annotations.; conditions: Culturing Media DMEM/F12 (1:1), 1 % Penicillin/Streptomycin, 10% Fetal bovin serum Add-On: No, Screening Media Control DMEM/F12 (1:1), Screening Media Samples DMEM/F12 (1:1)
U2OS [1] = experiment: as §1; conditions: Culturing Media DMEM, 1 % Penicillin/Streptomycin, 10% Fetal bovin serum Add-On: No, Screening Media Control DMEM, Screening Media Samples DMEM
U2OS [2] = experiment: as §1; conditions: Culturing Media DMEM, 1 % Penicillin/Streptomycin, 10% Fetal bovin serum Add-On: No, Screening Media Control DMEM, Screening Media Samples DMEM; remark: listed apart in the source
[3] = Compound Concentration 0.5 uM, Timepoint 12 hours
[4] = Compound Concentration 0.5 uM, Timepoint 24 hours
[5] = Compound Concentration 0.5 uM, Timepoint 36 hours
[6] = Compound Concentration 0.5 uM, Timepoint 60 hours
[7] = Compound Concentration 2 uM, Timepoint 12 hours
[8] = Compound Concentration 2 uM, Timepoint 24 hours
[9] = Compound Concentration 2 uM, Timepoint 36 hours
[10] = Compound Concentration 2 uM, Timepoint 60 hours
[11] = Compound Concentration 10 uM, Timepoint 12 hours
[12] = Compound Concentration 10 uM, Timepoint 24 hours
[13] = Compound Concentration 10 uM, Timepoint 36 hours
[14] = Compound Concentration 10 uM, Timepoint 60 hours

| Compound | autophagy induction (TERT-RPE1; [3]) [%] | autophagy induction (TERT-RPE1; [4]) [%] | autophagy induction (TERT-RPE1; [5]) [%] | autophagy induction (TERT-RPE1; [6]) [%] | autophagy induction (TERT-RPE1; [7]) [%] | autophagy induction (TERT-RPE1; [8]) [%] | autophagy induction (TERT-RPE1; [9]) [%] | autophagy induction (TERT-RPE1; [10]) [%] | autophagy induction (TERT-RPE1; [11]) [%] | autophagy induction (TERT-RPE1; [12]) [%] | autophagy induction (TERT-RPE1; [13]) [%] | autophagy induction (TERT-RPE1; [14]) [%] | autophagy induction (U2OS [1]; [3]) [%] | autophagy induction (U2OS [1]; [4]) [%] | autophagy induction (U2OS [1]; [5]) [%] | autophagy induction (U2OS [1]; [6]) [%] | autophagy induction (U2OS [1]; [7]) [%] | autophagy induction (U2OS [1]; [8]) [%] | autophagy induction (U2OS [1]; [9]) [%] | autophagy induction (U2OS [1]; [10]) [%] | further results |
| --- | --- | --- | --- | --- | --- | --- | --- | --- | --- | --- | --- | --- | --- | --- | --- | --- | --- | --- | --- | --- | --- |
| Cc1nnn(-c2ccc(-c3ccc(C4(C(=O)O)CC4)cc3)cc2)c1NC(=O)O[C@H](C)c1ccccc1 | -8.995 | -11.6561 | -16.9316 | -15.4997 | -6.061 | -9.8231 | -13.2189 | 6.862 | 6.725 | 7.557 | 8.9017 | 33.5372 | 2.665 | 0.2559 | -0.1373 | 0.1457 | 3.283 | 0.4892 | -0.1911 | -0.4752 | autophagy induction (U2OS [1]; [11]): 8.52%; autophagy induction (U2OS [1]; [12]): 5.722%; autophagy induction (U2OS [1]; [13]): 2.388%; autophagy induction (U2OS [1]; [14]): 0.4676%; autophagy induction (U2OS [2]; [3]): -1.478%; autophagy induction (U2OS [2]; [4]): 0.2424%; autophagy induction (U2OS [2]; [5]): -2.356%; autophagy induction (U2OS [2]; [6]): -5.696%; autophagy induction (U2OS [2]; [7]): 5.693%; autophagy induction (U2OS [2]; [8]): 3.627%; autophagy induction (U2OS [2]; [9]): 6.347%; autophagy induction (U2OS [2]; [10]): 1.322%; autophagy induction (U2OS [2]; [11]): 9.873%; autophagy induction (U2OS [2]; [12]): 11.541%; autophagy induction (U2OS [2]; [13]): 8.0313%; autophagy induction (U2OS [2]; [14]): 1.41% |
| C[C@H](Cc1cc2c(c(C(N)=O)c1)N(CCCO)CC2)NCCOc1ccccc1OCC(F)(F)F [SILODOSIN] | -3.093 | -6.268 | -8.97 | -13.239 | -3.63 | -5.97 | -7.85 | -11.8179 | -0.1283 | -0.9694 | 1.604 | -1.313 | -11.9601 | -4.037 | -2.198 | -1.72 | -7.096 | -4.088 | -2.301 | -1.816 | autophagy induction (U2OS [1]; [11]): 0.9061%; autophagy induction (U2OS [1]; [12]): 0.8821%; autophagy induction (U2OS [1]; [13]): -0.4631%; autophagy induction (U2OS [1]; [14]): -2.909%; autophagy induction (U2OS [2]; [3]): 8.749%; autophagy induction (U2OS [2]; [4]): -4.272%; autophagy induction (U2OS [2]; [5]): -5.327%; autophagy induction (U2OS [2]; [6]): -13.2389%; autophagy induction (U2OS [2]; [7]): -4.216%; autophagy induction (U2OS [2]; [8]): 0.5128%; autophagy induction (U2OS [2]; [9]): -1.271%; autophagy induction (U2OS [2]; [10]): -7.276%; autophagy induction (U2OS [2]; [11]): 1.6%; autophagy induction (U2OS [2]; [12]): 6.633%; autophagy induction (U2OS [2]; [13]): 3.208%; autophagy induction (U2OS [2]; [14]): 0.1621% |
